The values that follow come from ChEMBL document CHEMBL1133162, “Tyrosine kinase inhibitors. 17. Irreversible inhibitors of the epidermal growth factor receptor: 4-(phenylamino)quinazoline- and 4-(phenylamino)pyrido[3,2-d]pyrimidine-6-acrylamides bearing additional solubilizing functions” (J Med Chem, 2000).

Active and inactive are the calls of the source. The calls are words filed in the database; no cut-off is given here.

For assay [1], the system named is Caco-2. Description: Efflux in Caco-2 cells; no. Format: functional, cell-based. The following applies: Homo sapiens. In general terms: Passage across Caco-2 layers is used to estimate intestinal permeability.
The subject of assay [2] is Caco-2. Description: Absorptive transport in Caco-2 cells in comparison to metoprolol. Format: functional, cell-based. The following applies: Homo sapiens.
Assay [3] has as its system Caco-2. Description: permeability in Caco-2 cells; no. Format: functional, cell-based. The following applies: Homo sapiens.
Assay [4] relates to A-431. Description: In vivo activity against A431 xenografts in mice, ratio of treated/control tumor mass at 5 mg/kg peroral dose for 10-24 days. Format: functional. The following applies: route oral.
In assay [5] the test system is A-431. Description: In vivo activity against A431 xenografts in mice, ratio of treated/control tumor mass at 18 mg/kg peroral dose for 10-24 days. The conditions noted are these: route oral.
The test system of assay [6] is Caco-2. Description: Absorptive transport in Caco-2 cells in comparison to metoprolol. Format: functional, cell-based. The conditions noted are these: Homo sapiens.
The target of assay [7] is Receptor tyrosine-protein kinase erbB-2 (Homo sapiens, UniProt P04626).
Receptor tyrosine-protein kinase erbB-2, sequence (P04626 whole entry): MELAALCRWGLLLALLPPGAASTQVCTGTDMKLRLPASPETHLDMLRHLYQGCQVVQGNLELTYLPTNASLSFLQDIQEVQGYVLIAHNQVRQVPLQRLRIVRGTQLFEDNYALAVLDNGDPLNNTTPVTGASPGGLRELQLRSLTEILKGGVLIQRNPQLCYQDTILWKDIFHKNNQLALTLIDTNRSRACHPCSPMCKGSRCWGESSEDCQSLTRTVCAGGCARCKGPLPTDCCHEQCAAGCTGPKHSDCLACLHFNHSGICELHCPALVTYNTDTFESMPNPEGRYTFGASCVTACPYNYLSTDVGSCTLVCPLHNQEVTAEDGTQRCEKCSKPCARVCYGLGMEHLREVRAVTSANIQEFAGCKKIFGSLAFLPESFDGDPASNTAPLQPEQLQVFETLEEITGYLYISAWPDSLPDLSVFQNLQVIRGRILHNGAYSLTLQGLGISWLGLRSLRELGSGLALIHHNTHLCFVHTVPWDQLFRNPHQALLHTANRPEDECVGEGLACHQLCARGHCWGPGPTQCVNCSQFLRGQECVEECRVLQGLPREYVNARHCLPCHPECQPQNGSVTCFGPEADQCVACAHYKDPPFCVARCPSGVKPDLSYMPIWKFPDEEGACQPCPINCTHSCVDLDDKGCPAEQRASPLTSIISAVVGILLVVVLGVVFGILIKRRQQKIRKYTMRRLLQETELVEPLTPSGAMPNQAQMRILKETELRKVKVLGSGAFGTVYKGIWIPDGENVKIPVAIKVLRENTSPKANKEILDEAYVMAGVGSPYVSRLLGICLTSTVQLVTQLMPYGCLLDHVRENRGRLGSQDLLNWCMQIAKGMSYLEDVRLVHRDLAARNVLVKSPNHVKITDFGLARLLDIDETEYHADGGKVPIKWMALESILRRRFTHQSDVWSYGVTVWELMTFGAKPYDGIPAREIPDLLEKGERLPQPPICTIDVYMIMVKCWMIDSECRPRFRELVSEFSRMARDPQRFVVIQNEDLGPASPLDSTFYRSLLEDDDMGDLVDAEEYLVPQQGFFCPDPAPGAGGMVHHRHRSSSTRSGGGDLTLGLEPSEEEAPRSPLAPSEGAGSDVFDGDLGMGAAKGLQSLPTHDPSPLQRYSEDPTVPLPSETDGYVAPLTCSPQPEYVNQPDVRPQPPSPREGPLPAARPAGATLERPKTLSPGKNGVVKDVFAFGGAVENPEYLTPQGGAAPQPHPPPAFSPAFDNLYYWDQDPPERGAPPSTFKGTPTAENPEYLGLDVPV
Description: Inhibition of autophosphorylation of ERBB2 receptor kinase in MDA-MB 453 cells
In assay [8] the target is T1, Epidermal growth factor receptor (Homo sapiens, UniProt P00533).
T1 sequence (P00533 whole entry): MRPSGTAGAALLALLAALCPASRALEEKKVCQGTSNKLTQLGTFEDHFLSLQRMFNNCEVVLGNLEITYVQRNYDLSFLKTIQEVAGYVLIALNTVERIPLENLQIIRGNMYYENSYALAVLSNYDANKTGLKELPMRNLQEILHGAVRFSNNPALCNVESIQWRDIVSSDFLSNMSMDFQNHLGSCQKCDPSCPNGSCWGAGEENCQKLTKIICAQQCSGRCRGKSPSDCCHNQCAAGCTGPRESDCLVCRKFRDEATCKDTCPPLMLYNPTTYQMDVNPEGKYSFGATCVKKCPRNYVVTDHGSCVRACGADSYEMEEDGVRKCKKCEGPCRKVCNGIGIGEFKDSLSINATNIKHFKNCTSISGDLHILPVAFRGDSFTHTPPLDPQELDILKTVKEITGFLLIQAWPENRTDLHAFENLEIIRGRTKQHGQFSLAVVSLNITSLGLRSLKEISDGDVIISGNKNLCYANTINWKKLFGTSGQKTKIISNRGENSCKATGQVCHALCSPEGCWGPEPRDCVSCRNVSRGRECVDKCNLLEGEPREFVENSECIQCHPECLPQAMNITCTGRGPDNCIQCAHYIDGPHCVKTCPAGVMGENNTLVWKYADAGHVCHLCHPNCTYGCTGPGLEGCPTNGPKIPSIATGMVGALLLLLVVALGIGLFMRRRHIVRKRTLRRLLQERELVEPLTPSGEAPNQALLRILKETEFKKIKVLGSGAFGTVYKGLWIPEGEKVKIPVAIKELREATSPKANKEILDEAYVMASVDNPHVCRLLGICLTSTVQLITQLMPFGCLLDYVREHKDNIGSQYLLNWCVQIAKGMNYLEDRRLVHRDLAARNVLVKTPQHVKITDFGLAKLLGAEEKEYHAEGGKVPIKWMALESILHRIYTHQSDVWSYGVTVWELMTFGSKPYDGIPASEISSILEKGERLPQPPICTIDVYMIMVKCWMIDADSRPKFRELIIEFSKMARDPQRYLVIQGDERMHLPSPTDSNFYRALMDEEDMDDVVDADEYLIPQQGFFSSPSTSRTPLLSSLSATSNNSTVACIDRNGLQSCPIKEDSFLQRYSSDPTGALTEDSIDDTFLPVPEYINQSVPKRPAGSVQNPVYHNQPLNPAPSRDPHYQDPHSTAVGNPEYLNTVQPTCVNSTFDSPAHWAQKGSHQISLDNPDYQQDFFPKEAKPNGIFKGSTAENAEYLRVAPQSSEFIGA
Description: Inhibition of EGF-stimulated autophosphorylation of EGFR enzyme in A431 cells detected by immunoblotting
The target in assay [9] is T1, Epidermal growth factor receptor. This is another data set of the same source.
Description: Inhibition of phosphorylation of a polyglutamic acid/tyrosine random copolymer by EGFR enzyme prepared from human A431 carcinoma cell vesicles by immunoaffinity chromatography
In assay [10] the test system is Caco-2. Description: Efflux in Caco-2 cells; yes. Format: functional, cell-based. The following applies: Homo sapiens.
The subject of assay [11] is Caco-2. Put plainly: permeability in Caco-2 cells; yes. The format is functional, cell-based. The conditions noted are these: Homo sapiens.
The subject of assay [12] is A-431. Put plainly: In vivo activity against A431 xenografts in mice, difference in days for treated(T) and control(C) tumors to reach 750 mg at 60 mg/kg peroral dose for 10-24 days. The conditions noted are these: route oral. The format is functional.
Assay [13] concerns Mus musculus. Put plainly: In vivo activity against xenografts in mice, ratio of treated/control tumor mass at 10 mg/kg peroral dose for 10-24 days. Format: functional. The following applies: route oral.
Assay [14] relates to A-431. Description: In vivo activity against A431 xenografts in mice after 60 mg/kg peroral dose. The format is functional. The conditions noted are these: route oral.
Assay [15] has as its system Mus musculus. Description: In vivo activity against xenografts in mice, ratio of treated/control tumor mass at 10 mg/kg intraperitoneal dose.
The test system of assay [16] is A-431. Description: In vivo activity against A431 xenografts in mice, difference in days for treated(T) and control(C) tumors to reach 750 mg at 10 mg/kg intraperitoneal dose for 13-26 days.
The subject of assay [17] is Caco-2. Description: Secretory Transport in Caco-2 cells in comparison to metoprolol. Format: functional, cell-based. More on the design: unit not given here. The conditions noted are these: Homo sapiens.
For assay [18], the system named is A-431. Put plainly: In vivo activity against A431 xenografts in mice, difference in days for treated(T) and control(C) tumors to reach 750 mg at 20 mg/kg peroral dose for 10-24 days. Format: functional. The conditions noted are these: route oral.
Assay [19] concerns A-431. Description: In vivo activity against A431 xenografts in mice, ratio of treated/control A431 cell tumor mass at 20 mg/kg peroral dose for 10-24 days. The format is functional. The following applies: route oral.
Assay [20] has as its system A-431. Description: In vivo activity against A431 xenografts in mice, ratio of treated/control tumor mass at 20 mg/kg peroral dose for 15-19 days. The conditions noted are these: route oral.

As to `C=CC(=O)Nc1cc2c(Nc3ccc(F)c(Cl)c3)ncnc2cc1OCCCN1CCOCC1` [CANERTINIB], the Efflux result in the assay with Caco-2 [1] is on record as “Impermeable”. For the same molecule, the Permeability in the assay on Caco-2 [2] was 49.3 ·10e6. Moreover, the Cell permeation entry in the assay with Caco-2 [3] is recorded as “Impermeable”. Moreover, the Last therapy day is listed as 4% in the assay on A-431 [4] and 0% in the assay on A-431 [5].

Take `COCCc1ccc(OCC(O)CNC(C)C)cc1` (stereo unspecified): the figures for the Permeability result with Caco-2 [1], in the assay with Caco-2 [6] and in the assay on Caco-2 [3] were “Impermeable”, 21.4 ·10e6 and “Impermeable”, respectively.

As for `C=CC(=O)Nc1nc2c(Nc3ccc(F)c(Cl)c3)ncnc2cc1OCCCN1CCN(C)CC1`, the IC50 in assay [7] was 182 nM; in assay [8], 264 nM; in [9], 6.6 nM.

As for `C=CC(=O)Nc1nc2c(Nc3ccc(F)c(Cl)c3)ncnc2cc1OCCOC`, the IC50 in assay [8] amounted to 377 nM; in assay [9], 0.97 nM.

`C=CC(=O)Nc1cc2c(Nc3cccc(Br)c3)ncnc2cc1OCCCCN(C)C`: the IC50 in assay [8] came to 7.9 nM; in [9] it was 3.9 nM.

For the molecule `C=CC(=O)Nc1nc2c(Nc3ccc(F)c(Cl)c3)ncnc2cc1OC`, the values for the IC50 in [7], in assay [8] and in assay [9] were 125 nM, 291 nM and 0.95 nM, respectively.

Turning to `C=CC(=O)Nc1cc2c(Nc3cccc(C)c3)ncnc2cc1OCCCN1CCN(C)CC1`, the values for the IC50 in [8] and in [9] were 18 nM and 2 nM, respectively.

As to `C=CC(=O)Nc1nc2c(Nc3ccc(F)c(Cl)c3)ncnc2cc1CCCCN1CCOCC1`, the IC50 was more than 5000 nM in assay [7], 5100 nM in assay [8] and 2.7 nM in assay [9].

Take `C=CC(=O)Nc1ccc2ncnc(Nc3ccc(OCCN(C)C)c(Br)c3)c2c1`: the results for the IC50 in [8] and in assay [9] were 7690 nM and 27 nM, respectively.

With `C=CC(=O)Nc1ccc2ncnc(Nc3ccc(CN(C)C)c(Br)c3)c2c1`, the IC50 turned out to be 416 nM in [8] and 45 nM in [9].

In the case of `C=CC(=O)Nc1ccc2ncnc(Nc3cccc(C)c3)c2c1`, the IC50 in assay [7] turned out to be 22 nM.

Regarding `CC[C@]1(O)C[C@@H]2CN(CCc3c([nH]c4ccccc34)[C@@](C(=O)OC)(c3cc4c(cc3OC)N(C)[C@H]3[C@@](O)(C(=O)OC)[C@H](OC(C)=O)[C@]5(CC)C=CCN6CC[C@]43[C@@H]65)C2)C1`, the Permeability in the assay on Caco-2 [6] was 1.54 ·10e6. In addition, the Permeability entry in the assay with Caco-2 [10] and with Caco-2 [11] was “Active” in each case.

Molecule `C=CC(=O)Nc1cc2c(Nc3ccc(F)c(Cl)c3)ncnc2cc1OCCOCCCCO` showed an IC50 in assay [9] of 1.7 nM.

With `C=CC(=O)Nc1nc2c(Nc3ccc(F)c(Cl)c3)ncnc2cc1/C=C/CCN1CCOCC1`, the IC50 was determined as 12 nM in assay [7], 119 nM in assay [8] and 0.16 nM in [9].

In the case of `C=CC(=O)Nc1cc2c(Nc3ccc(F)c(Br)c3)ncnc2cc1OCCCN1CCOCC1`, the IC50 in assay [7] amounted to 8.2 nM; in [8], 4.7 nM; in assay [9] it was 1.8 nM.

With `C=CC(=O)Nc1cc2c(Nc3cccc(Br)c3)ncnc2cc1SCCCN(CC)CC`, the IC50 in assay [8] came to 196 nM; in assay [9], 0.78 nM.

Take `C=CC(=O)Nc1cc2c(Nc3cccc(Br)c3)ncnc2cc1OCCCN1CCN(C)CC1`: the IC50 is 3 nM in assay [8] and 1.7 nM in [9].

`C=CC(=O)N(C)c1nc2c(Nc3ccc(F)c(Cl)c3)ncnc2cc1OCCCN1CCOCC1`: the figures for the half-inhibitory concentration (IC50) in [7], in assay [8] and in [9] were more than 200 nM, 88 nM and 20 nM, respectively.

On to `C=CC(=O)Nc1cc2c(Nc3cccc(Br)c3)ncnc2cc1OCCCN1CCOCC1`, for which the T-C was 29.8 days with A-431 [12] and 21.5 days with A-431 [16]. Also, the T/C in the assay on Mus musculus [13] came to 0%; in the assay on Mus musculus [15] it was 18%. Further, the Weight change in the assay with A-431 [14] is reported as -1.6 g. Further, the IC50 in assay [7] is 6.4 nM.

In the case of `C=CC(=O)Nc1nc2c(Nc3ccc(F)c(Cl)c3)ncnc2cc1OCCCN1CCOCC1`, in the assay with Caco-2 [1], the Efflux entry was “Impermeable”. For the same molecule, the Permeability in the assay with Caco-2 [6] was 59.6 ·10e6; in the assay with Caco-2 [17] it was 81.2. Besides, the Permeability limited entry with Caco-2 [3] was “Impermeable”. The same molecule gave a T-C in the assay with A-431 [18] of 9.3 days. Also, the T/C in the assay on A-431 [19] turned out to be 69%. Moreover, the IC50 in [7] amounted to 189 nM; in assay [8], 434 nM; in assay [9] it was 1.5 nM. The Weight change in the assay with A-431 [20] was -0.5 g.

What is called IC50 is the concentration needed to halve the response being measured. The T/C is the ratio of treated to control.
